Data: article PMC10638401, “Mannich-type modifications of (−)-cannabidiol and (−)-cannabigerol leading to new, bioactive derivatives” (Scientific Reports, 2023)
In brackets after ≈: the same amount, converted by molar mass.

Experiments:
SZ95 sebocytes [1] = experiment: Viability MTT-assay on sebocytes, 48 h; format: cell-based, human; conditions: 30 μM
Description: (§1) Human immortalized SZ95 sebocytes, originated from human facial sebaceous glands[50] were provided by prof. Christos C. Zouboulis, and were cultured in Sebomed® Basal Medium (Cat. No. F8205; Sigma-Aldrich) supplemented with 10% FBS (Gibco-Thermo Fisher Scientific), 1 mM CaCl2 (Cat. No. C7902; Sigma-Aldrich), 5 ng/ml human epidermal growth factor (Cat. No. E9644; Sigma-Aldrich), and MycoZap™ Plus-CL (1:500; Lonza). The medium was changed every other day, and cells were subcultured at 60–70% confluence.
The viability of HaCaT keratinocytes and SZ95 sebocytes was determined by MTT-assay[58] (Cat. No. M5655; Sigma-Aldrich) measuring the conversion of the tetrazolium salt to formazan by mitochondrial dehydrogenases. Cells were plated in 96-well plates (20,000 cells/well), and were treated as indicated. Cells were then incubated with 0.5 mg/ml MTT reagent for 3 h, and concentration of formazan crystals (as an indicator of number of viable cells) was determined colorimetrically at 565 nm by using FlexStation 3 multi-mode microplate reader (Molecular Devices). Results were expressed as percentage of vehicle-treated control regarded as 100%.

SZ95 sebocytes [2] = experiment: Nile Red-assay, spontaneous sebaceous lipogenesis; format: cell-based, human; conditions: 48 h
SZ95 sebocytes [3] = experiment: Nile Red-assay, arachidonic acid-induced lipogenesis; format: cell-based, human; conditions: 50 μM arachidonic acid, 48 h
Description: as §1
For quantitative measurement of sebaceous (neutral) lipid content, SZ95 sebocytes (20,000 cells/well) were cultured in 96-well “black well/clear bottom” plates (Cat. No. 655090; Greiner Bio-One, Frickenhausen, Germany), and were treated with compounds in the presence or absence of arachidonic acid (AA; Cat. No. 90010; Cayman Chemical Company, Ann Arbor, MI, USA) or its vehicle (absolute ethanol) as indicated. Subsequently, supernatants were discarded, cells were washed twice with phosphate-buffered saline (PBS; 115 mM NaCl, 20 mM Na2HPO4, pH 7.4; all from Sigma-Aldrich), and 100 µl of a 1 µg/ml Nile Red (Cat. No. N3013; Sigma-Aldrich) solution in PBS was added to each well. The plates were then incubated at 37 °C for 30 min, and fluorescence was measured on FlexStation 3 multimode microplate reader (Molecular Devices, San Francisco, CA, USA). Results, measured in relative fluorescence units, are expressed as percentage of the vehicle (absolute ethanol; Cat. No. 20821.296; VWR International)-treated control regarded as 100%, using 485 nm excitation and 565 nm emission wavelengths.

Escherichia coli = experiment: Antibacterial effect, broth micro dilution; format: cell-based
Pseudomonas aeruginosa = experiment: Antibacterial effect, broth micro dilution; format: cell-based
in vitro = conditions: African green monkey
[4] = test system: Enterococcus faecalis 29 212; experiment: MIC, broth micro dilution; conditions: Enterococcus faecalis, 29212
Description: (§2) According to CLSI guideline the Minimal Inhibitory Concentrations (MICs) of the prepared compounds were determined with the broth micro dilution method. After an overnight growth on 5% bovine blood agar plates at 35 °C bacterial strains were suspended in physiological saline in order to reach the density of 0.5 McFarland for inoculation. Stock solutions containing different concentrations of the substances were prepared in DMSO and H2O (1:1). These were twofold serially diluted from 256 to 0.5 mg/l in Mueller–Hinton broth, and 100 ml of each dilution was inoculated with 10 ml of each bacterial suspension.

[5] = test system: Enterococcus faecalis 51299 VanB; experiment: MIC, broth micro dilution; conditions: Enterococcus faecalis, 51299VANB
Description: as §2

[6] = test system: multidrug-resistant Acinetobacter baumannii; experiment: Antibacterial effect, broth micro dilution
Description: as §2

[7] = test system: Klebsiella pneumoniae carbapenemase-producing bacteria; experiment: Antibacterial effect, broth micro dilution
Description: as §2

Row | Compound | viability (MTT signal intensity) (SZ95 sebocytes [1]) | spontaneous, homeostatic sebaceous lipogenesis (lipid synthesis) (SZ95 sebocytes [2]; 30 μM) | spontaneous, homeostatic sebaceous lipogenesis (SZ95 sebocytes [2]; ≤ 10 μM) | effect on the lipogenic effect of arachidonic acid (AA) (SZ95 sebocytes [3]) | antibacterial effect (no effect up to) (Escherichia coli) [µg/mL] | antibacterial effect (no effect up to) (Pseudomonas aeruginosa) [µg/mL] | CC50 (in vitro) [µM] | MIC [4] [µg/mL] | MIC [5] [µg/mL] | antibacterial effect (no effect up to) [6] [µg/mL] | antibacterial effect (no effect up to) [7] [µg/mL] | spontaneous, homeostatic sebaceous lipogenesis (SZ95 sebocytes [2]; applied alone)
1 | C=C(C)[C@@H]1CCC(C)=C[C@H]1c1c(O)cc(CCCCC)cc1O [Compound 1, (−)-Cannabidiol] | cytotoxic effects | significant decrease in the lipid synthesis | no effect | completely prevent the lipogenic effect | > 256 | > 256 | 12.1 ± 1.2 | 2 (≈ 6.36 µM) | 4 (≈ 12.7 µM) | > 256 | > 256 | 
2 | C=C(C)[C@@H]1CCC(C)=C[C@H]1c1c(O)cc(CCCCC)c(COCC)c1O [Compound 9] | no such effect on the viability |  |  | mimic this lipostatic effect |  |  | > 100 | 8 (≈ 21.5 µM) | 8 (≈ 21.5 µM) |  |  | rather promote spontaneous, homeostatic sebaceous lipogenesis
